Key:
Type in all cases: cell-based, human
ERE reporter activity = assay: ERE-luciferase assay of tamoxifen with ERAP1 knockdown; conditions: 10 μM tamoxifen, 96 hours, 1 μM E2
Protocol: (§1) FIG. 17 is a diagram illustrating the influence of ERAP1 knockdown on the suppression effect on proliferation of breast cancer cells by tamoxifen.
In addition, the inhibition effect of tamoxifen when ERAP1 was knocked down by siRNA method was evaluated with ERE-luciferase assay. MCF-7 cells were seeded in 2×10^4/well on a 96-well plate, and were temporarily transfected with ERE-luciferase reporter. Then, the cells were stimulated with 1 μM E2, and after 24 hours, treated with si-ERAP1 or si-control. After 24 hours, the cells were treated with 10 μM tamoxifen and after 96 hours, ERE luciferase activity was measured.

ERAP1 expression = assay: ERAP1 expression, quantitative RT-PCR and Western, MCF-7; conditions: tamoxifen, 10 nM E2 24 hours
MCF-7 cells [1] = assay: Cell cycle FACS analysis, MCF-7; conditions: 10 μM ERAP1-peptide and/or 10 nM tamoxifen, 10 nM E2 24 hours
Protocol: FIG. 6-2 is a diagram illustrating that ERAP1-peptide treatment suppresses ERα-dependent cell proliferation of breast cancer cell lines. […] MCF-7 cells were treated with 10 μM ERAP1-peptide or 10 μM tamoxifen. Then, immediately, the cells were stimulated with 10 nM E2 for 24 hours. After the immobilization, the cells were stained with propidium iodide, and analyzed by flow cytometry.
FIG. 19 is a diagram illustrating the results of FACS analysis showing the effects of concomitant use of the ERAP1-peptide and tamoxifen on the cell cycle.
The cells were fixed with cold 70% ethanol, and stained with 20 μg/ml propidium iodide (Sigma) and 1 mg/ml ribonuclease A (Sigma), and analyzed with FACSCalibur (B D, Franklin Lakes, N.J., USA). The cell cycle was evaluated using CellQuest software (BD).
MCF-7 cells were treated with 10 μM ERAP1-peptide and/or 10 nM tamoxifen. Then, immediately, the cells were stimulated with 10 nM E2 for 24 hours. After the immobilization, the cells were stained with propidium iodide, and analyzed by flow cytometry.

[2] = tested on: Akt, MAPK and ERα phosphorylation; assay: Phosphorylation of Akt, MAPK and ERα in tamoxifen-resistant MCF-7 cells; conditions: Tam-R MCF-7, tamoxifen alone or tamoxifen and E2
Protocol: FIG. 14 is a diagram illustrating the suppression effect of the ERAP1-peptide on tamoxifen-resistant MCF-7 cells. […] The tamoxifen-resistant MCF-7 cells were treated with the ERAP1-peptide in each concentration (0, 5 and 10 μM). Then, immediately, the cells were stimulated with 10 nM E2 for 24 hours.
MCF-7 cells and tamoxifen-resistant MCF-7 cells were seeded in 1×10^5/well in DMEM/F12 culture medium containing phenol red on a 24-well plate and stood in a CO2 incubator for 24 hours. Then, the culture medium was exchanged with DMEM/F12 culture medium containing 10% FBS, 1% penicillin/streptomycin and 1 μM tamoxifen, and not containing phenol red, and the cells were further pre-cultured for 24 hours. The supernatant was removed, and then 180 μl of […] ERAP1-peptide was added (final concentration: 10 μM), and subsequently 20 μl of 100 nM E2 was added (final concentration: 10 nM), and the mixture was reacted for 24 hours. The reaction solution was removed, and then 100 μl of SDS-sample buffer was added and the cells were lysed. The cells were subjected to boiling treatment at 95° C. for 5 minutes, and subjected to polyacrylic amide electrophoresis. Phosphorylations of Akt and MAPK were detected with anti-phosphorylation Akt (Ser473) (587F11) and anti-phosphorylation p44/42 MAP Kinase (Thr202/Tyr204) antibodies, and phosphorylation of ERα was detected with anti-phosphorylation ERα (Ser104/106), anti-phosphorylation ERα (Ser118), anti-phosphorylation ERα (Ser167), anti-phosphorylation ERα (Ser305) and anti-phosphorylation ERα (Tyr537) antibodies.

MCF-7 cells [3] = assay: MTT assay of tamoxifen with ERAP1 knockdown; conditions: 10 μM tamoxifen, 96 hours, 1 μM E2
Protocol: as §1
The inhibition effect of tamoxifen when ERAP1 was knocked down by siRNA method was evaluated with MTT assay. The sequences of si-ERAP1, and si-control (si-EGFP) and the method for the experiment were in accordance with the report of Kim et, al. (Cancer Science, 2009, 100; 1468-78) MCF-7 cells were seeded in […] on a 48-well plate, and stimulated with 1 μM E2, and after 24 hours, treated with si-ERAP1 or si-control. After 24 hours, the cells were treated with 10 μM tamoxifen and the number of living cells was evaluated with MTT assay after 96 hours.

## CC/C(=C(\c1ccccc1)c1ccc(OCCN(C)C)cc1)c1ccccc1 [tamoxifen, reference compound]
ERE reporter activity
  ERE reporter activity, siERAP1 versus si-control: the reporter activity was suppressed more
ERAP1 expression
  expression of ERAP1, mRNA level and protein level: suppressed depending on the concentration of TAM
MCF-7 cells [1]
  cell cycle: increase of cells having stopped in the G1 phase
[2]
  phosphorylations of Akt and MAPK: accelerated phosphorylations of Akt and MAPK
MCF-7 cells [3]
  cell proliferation, siERAP1 versus si-control: the cell proliferation was suppressed more

From patent publication US9725490B2, “ERAP1-derived peptide and use thereof” (TOKUSHIMA UNIVERSITY, priority 2011, dated 2017)
